Key:
[1] = system: U251M2; assay: In vivo SGX523 and erlotinib therapeutic efficacy study, U251M2 xenograft; design: species or system mice; details: for tumor sensitivity to single agent: either drug alone
Protocol: (§1) All animal studies were approved by the IACUC of the Van Andel Research Institute. Each GBM cell line (5×10^5 cells in 100 μl PBS) was inoculated into both SCID and SCIDhgf mice subcutaneously. For V13 tumor line, tumors were transplanted into SCIDhgf mice at the flank to initiate tumor growth. Tumor size was measured with a caliper twice a week. When average tumor size reached 100 mm^3, mice were grouped (n=10) for treatment as indicated. Dosing with SGX523 and/or erlotinib was delivered once daily by oral gavage for 3 weeks. Vehicles used were 0.5% MC 400 with 0.05% Tween 80 (SGX523) and 0.5% (w/v) methyl cellulose (erlotinib). Tumor size was measured by a caliper twice a week. Body weight was measured once a week. All mice were sacrificed 24 h after last dose. To determine the effectiveness of treatment, the average tumor size of each group from the last measurement was analyzed with Student's t test (α=0.05).

[2] = system: X01-GB; assay: In vivo efficacy study, X01-GB GBM stem cell tumors; design: species or system mice; details: for tumor response: X01-GB tumors, erlotinib at 75 mg/kg
Protocol: as §1

[3] = system: U87M2; assay: In vivo SGX523 and erlotinib therapeutic efficacy study, U87M2 xenograft; design: species or system mice
Protocol: as §1

[4] = system: U118; assay: Serum HGF ELISA, U118 tumor-bearing mice; assay type: in vivo; details: end of efficacy study, mean ± SD
Protocol: (§2) At the end of the efficacy study, mouse serum was collected from each group and kept at −80° C. until use. For HGF expression level, 50 μl of serum was used for an ELISA test (R&D) according to the kit instructions. At least five samples were tested. Data represent mean±SD. Student's t test was used for statistical analysis.

[5] = system: V13; assay: In vivo efficacy study, V13 GBM patient-derived xenograft; design: species or system mice; details: for tumor response: V13 in SCIDhgf mice, Erlotinib at 75 mg/kg
Protocol: The V13 GBM xenograft tumor line was generated from the primary tumor of a GBM patient upon surgical removal. The fresh tumor specimen was split into two pieces, one to be divided and implanted into 5 nude mice to propagate tumor growth and another piece to be directly digested with 0.05% trypin into single cells and grown in Neuro-basal medium with 10% FBS supplemented with EGF (20 ng/ml), bFGF (20 ng/ml) and 1% penicillin and streptomycin at 37° C. The tumors growing from nude mice were analyzed using FISH to compare them with the original tumor and were further transplanted into the host nude mice to maintain tumor growth in vivo. All studies involving human subjects and human tissues were approved by IRB committee of Van Andel Research Institute.
as §1

[6] = system: DBM2; assay: In vivo SGX523 and erlotinib therapeutic efficacy study, DBM2 xenograft; design: species or system mice
Protocol: as §1

[7] = system: U87M2; assay: Serum HGF ELISA, U87M2 tumor-bearing mice; assay type: in vivo; details: end of efficacy study, mean ± SD
Protocol: as §2

[8] = system: U251M2, T98G, and DBM2 cells; assay: HGF- and EGF-induced uPA activity in GBM cells without autocrine HGF; assay type: cell-based, human; details: for cross inhibition between MET and EGFR pathways (uPA activity): early time point in vitro
Protocol: (§3) Cells were grown overnight in DMEM/10% FBS. Drugs were dissolved in DMSO and serially diluted from stock concentrations into DMEM/10% FBS medium and added to the appropriate wells. Immediately after drug or reagent addition, HGF/SF (60 ng/ml) was added to all wells (with the exception of wells used as controls to calculate basal growth and uPA-plasmin activity levels). Twenty-four hours after drug and HGF/SF addition, plates were processed for the determination of plasmin activity as described previously (22). Wells were washed twice with DMEM (without phenol red; Life Technologies, Inc.), and 200 μl of reaction buffer [50% (v/v) 0.05 units/ml plasminogen in DMEM (without phenol red), 40% (v/v) 50 mM Tris buffer (pH 8.2), and 10% (v/v) 3 mM Chromozyme PL (Boehringer Mannheim) in 100 mM glycine solution] was added to each well. The plates were then incubated at 37° C., 5% CO2, for 4 h, at which time the absorbance was read on an automated spectrophotometric plate reader at the single wavelength of 405 nm.

[9] = system: SF295 SQ1; assay: Serum HGF ELISA, SF295 SQ1 tumor-bearing mice; assay type: in vivo; details: end of efficacy study, mean ± SD
Protocol: as §2

[10] = system: GBM; details: phase II clinical trials; cited from earlier work
[11] = system: SF295SQ1; assay: In vivo SGX523 and erlotinib therapeutic efficacy study, SF295SQ1 xenograft; design: species or system mice; details: SF295SQ1 subcutaneous; P<0.05 at all three doses
Protocol: as §1

[12] = system: U87M2 cells; assay: uPA activity in HGF-autocrine U87M2 cells; assay type: cell-based, human; details: even when stimulated by EGF
Protocol: as §3

[13] = system: DBM2 cells; assay: HGF/EGF-induced downstream signaling, Western blot, DBM2; assay type: cell-based, human
Protocol: (§4) Cells were seeded in 10-cm dishes and grown until 80% confluent. After serum starvation overnight, cells were treated with or without SGX523 for 4 h with (or without) human HGF/SF or EGF (100 ng/ml) for 20 minutes at 37° C. The cells were washed twice with ice-cold 1×PBS, and whole cell lysates were prepared using RIPA buffer. The protein concentrations were determined by DC protein assay. Equal amounts of total protein (30 μg) from cell lysates were loaded on a 4-20% SDS-PAGE gel (invitrogen), transferred to a polyvinylidene difluoride (PVDF) membrane (Invitrogen), and detected using an ECL Western Blotting Detection System (GE Healthcare). Antibodies used were human Met (clone 25H2,), phospho-Met (Y1234/1235), human EGFR (clone D38B1), phosphor-EGFR(Y1068), AKT, phospho-AKT (S473), p42/44 MAPK, phospho-p42/44 MAPK (T202/Y204) (all from Cell Signaling Technology); β-actin (clone AC-15, Abcam); and anti-HGFantibody (Clone 7-2, provided by Dr. Brian Cao at Van Andel Research Institute). Secondary antibodies used were goat anti-rabbit IgG-HRP and goat anti-mouse IgG-HRP (Santa Cruz Biotechnology).

[14] = system: U87M2 cells; assay: HGF/EGF-induced downstream signaling, Western blot, U87M2; assay type: cell-based, human; details: 1-10 μM, regardless of additional HGF or EGF stimulation
Protocol: as §4

[15] = system: U118; assay: In vivo SGX523 and erlotinib therapeutic efficacy study, U118 xenograft; design: species or system mice; details: U118 subcutaneous; P<0.05 at all three doses
Protocol: as §1

[16] = system: recurrent GBM; details: clinical trials against recurrent GBM; cited from earlier work

Row | Compound | tumor sensitivity to single agent [1] | tumor response [2] | Serum HGF concentration ([4]; U118, SCID mice) | Serum HGF concentration ([4]; U118, SCIDhgf mice) | tumor response [5] | Serum HGF concentration ([7]; U87M2, SCID mice) | Serum HGF concentration ([7]; U87M2, SCIDhgf mice) | cross inhibition between MET and EGFR pathways (uPA activity) [8] | Serum HGF concentration ([9]; SF295 SQ1, SCID mice) | Serum HGF concentration ([9]; SF295 SQ1, SCIDhgf mice) | other results
1 | C#Cc1cccc(Nc2ncnc3cc(OCCOC)c(OCCOC)cc23)c1 [Erlotinib, erlotinib] | tolerate | very sensitive | 348.7 ± 172^ pg/ml | 2940 ± 746 pg/mL | induced tumor regression | 1277 ± 679 pg/mL | 8233 ± 3311 pg/mL | no evidence of cross inhibition | 858 ± 670 ^ pg/ml | 4000 ± 1132 pg/mL | p-EGFR in tumor lysates ([2]; X01-GB, Western blot with tumor lysates): significantly reduced; prolonged inhibition of U87M2 tumor growth ([3]; FIG. 7: SGX523 90 or 120 mg/kg, erlotinib 150 mg/kg, p<0.05 for combination): failed; p-EGFR expression in tumor lysates ([5]; V13, Western blot with tumor lysates): significantly reduced; tumor sensitivity to single agent [6]: somewhat sensitive; inhibition of EGF-induced uPA activity ([8]; within 24 hrs, U251M2, T98G, DBM2 cells): specifically blocked
2 | COc1cc2nccc(Oc3ccc(NC(=O)C4(C(=O)Nc5ccc(F)cc5)CC4)cc3)c2cc1OC [XL184] | – | – | – | – | – | – | – | – | – | – | clinical efficacy [10]: promising efficacy
3 | Cn1cc(-c2ccc3nnc(Sc4ccc5ncccc5c4)n3n2)cn1 [SGX523] | tolerate | do not respond | 91 ± 85 ^5, 6 pg/ml | 4149 ± 1264 pg/mL | no response | 152 ± 85 ^4 pg/ml | 6330 ± 2240 pg/mL | no evidence of cross inhibition | 262 ± 138 ^4 pg/ml | 4214 ± 1084 pg/mL | tumor growth response at increased dose ([1]; 120 mg/kg): did not improve the responsive; tumor growth response ([1]; SGX523 60 mg/kg): no response; xenograft tumor sensitivity [11]: sensitive to SGX523 in a dose-dependent manner; inhibition of basal level of uPA activity [12]: did inhibit the basal level of uPA activity; inhibition of EGF induced p-EGFR [13]: did not inhibit; inhibition of p-Met and downstream MAPK and AKT pathways [14]: can inhibit p-Met and downstream MAPK and AKT pathways; tumor regrowth under continuous dosing ([3]; U87M2, continuous dosing with SGX523): start to grow back after 2 weeks; tumor regression ([3]; U87M2, first week after treatment started): induces U87M2 tumor regression; xenograft tumor sensitivity ([3]; U87M2 subcutaneous, P<0.05 at all three doses): sensitive to SGX523 in a dose-dependent manner; xenograft tumor sensitivity [15]: sensitive to SGX523 in a dose-dependent manner; tumor growth response ([6]; SGX523 60 mg/kg): no response; inhibition of HGF-induced uPA activity ([8]; SGX523 at 0.1 μM after 24 h, U251M2, T98G, DBM2 cells): inhibited HGF-induced uPA activity
4 | AMG102: a neutralizing antibody against HGF | – | – | – | – | – | – | – | – | – | – | clinical outcome [16]: failed in clinical trials
